The text below walks through data of US20220024921A1, “1,3,4-OXADIAZOLONE COMPOUND AND PHARMACEUTICAL” (NIPPON SHINYAKU CO., LTD., priority 2018, published 2022).

Where a name gives a salt, the structure may show the parent alone.

Assay [1] deals with PIM1 transgenic cells (Ba/F3) (Homo sapiens, UniProt P11309). Nature of the assay: Proliferation inhibitory effect on PIM1 transgenic cells. The note with it: proliferation inhibition, 72 hours, Cell Counting Kit-8, read-out: PIM1 IC50. The assay is classed as cell-based, mouse. In short, it runs like this: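 Mouse Ba/F3 pro-B cells were retrovirally transduced with human PIM1 so that their proliferation depends on PIM1. Cells were treated with compound at 1–10000 nM final for 72 h, then read by CCK-8 (OD450−OD650). Inhibition was set against DMSO (0%) and no-cell blank (100%), and IC50 was obtained by two-parameter logistic regression.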
(Formazan colour is commonly taken as a measure of viable cells.)

Assay [2] has as its target T1, PIM1 serine/threonine kinase (Homo sapiens, UniProt P11309).
T1 construct: purchased Carna Bioscience, Inc
Briefly: PIM1 serine/threonine kinase inhibitory effect. Type of assay: biochemical. The note with it: PIM1 serine/threonine kinase activity; ATP 40 μM; 30° C., 30 minutes. In outline:
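Recombinant PIM1 (0.15 μg/ml final) with 0.5 μM biotinylated substrate and 40 μM ATP in pH 7.0 HEPES/MgCl2 buffer, 30 min at 30° C. Compound range was 0.01–10000 nM final, n=2. HTRF detection with streptavidin-XL665 and anti-phospho antibody-cryptate, 1 h; IC50 from non-linear regression of the 665/620 ratio.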

T1 sequence (P11309 whole entry): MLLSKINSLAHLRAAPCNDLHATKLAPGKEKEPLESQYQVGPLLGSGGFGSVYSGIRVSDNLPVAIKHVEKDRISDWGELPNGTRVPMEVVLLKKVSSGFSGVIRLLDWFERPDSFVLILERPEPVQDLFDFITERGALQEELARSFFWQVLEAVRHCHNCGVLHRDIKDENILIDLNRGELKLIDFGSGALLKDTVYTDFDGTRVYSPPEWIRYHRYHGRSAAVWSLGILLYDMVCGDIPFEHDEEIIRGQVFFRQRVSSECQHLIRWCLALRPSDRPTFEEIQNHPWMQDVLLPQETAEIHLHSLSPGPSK
PIM1 transgenic cells (Ba/F3), sequence (P11309 whole entry, stated change not applied): as the sequence (P11309 whole entry) above

In the case of `NCCCCCNc1cc(-c2n[nH]c(=O)o2)ccc1C(F)(F)F` [Example 3, 5-{3-[(5-aminopentyl)amino]-4-(trifluoromethyl)phenyl}-1,3,4-oxadiazol-2(3H)-one hydrochloride], the GI50 in assay [1] turned out to be 7900 nM. In assay [2], half-maximal inhibition (IC50) was put at 11 nM.

With `CC(Oc1cc(-c2n[nH]c(=O)o2)ccc1Br)[C@H]1CC[C@H](N)CC1` (stereo partly drawn) [Example 237, 5-(3-{1-[(1r,4r)-4-aminocyclohexyl]ethoxy}-4-bromophenyl)-1,3,4-oxadiazol-2(3H)-one], the GI50 in assay [1] was 90 nM. Further, half-maximal inhibition in assay [2] (IC50) required 5.3 nM.

As to `O=c1[nH]nc(-c2ccc(C(F)(F)F)c(NCC3CCNCC3)c2)o1` [Example 48, 5-[3-{[(piperidin-4-yl)methyl]amino}-4-(trifluoromethyl)phenyl]-1,3,4-oxadiazol-2(3H)-one hydrochloride], the GI50 in assay [1] stood at 1200 nM. Moreover, in assay [2], the IC50 was determined as 4.4 nM.

With `CC[C@H](Nc1cc(-c2n[nH]c(=O)o2)cc(F)c1Cl)C1CCNCC1` [Example 139, 5-(4-chloro-3-fluoro-5-{[(1S)-1-(piperidin-4-yl)propyl]amino}phenyl)-1,3,4-oxadiazol-2(3H)-one hydrochloride], in assay [1], the GI50 stood at 80 nM. The compound also gave an IC50 in assay [2] of 2.6 nM.

Take `CC1(C)[C@@H](CNc2cc(-c3n[nH]c(=O)o3)ccc2C(F)(F)F)C[C@H]1N` [Example 176, 5-[3-({[(1S,3R)-3-amino-2,2-dimethylcyclobutyl]methyl}amino)-4-(trifluoromethyl)phenyl]-1,3,4-oxadiazol-2(3H)-one]: the GI50 in assay [1] turned out to be 88 nM. This compound also showed an IC50 in assay [2] of 9.6 nM.

With `CC(=O)N[C@H]1C[C@@H](CNc2cc(-c3n[nH]c(=O)o3)ccc2C(F)(F)F)C1(C)C` [Example 184, N-[(1S,3R)-2,2-dimethyl-3-{[5-(5-oxo-4,5-dihydro-1,3,4-oxadiazol-2-yl)-2-(trifluoromethyl)anilino]methyl}cyclobutyl]acetamide], the GI50 in assay [1] was determined as 880 nM. This compound showed an IC50 in assay [2] of 65 nM.

In the case of `CN[C@H]1CC[C@H](CN(C)c2cc(-c3n[nH]c(=O)o3)ccc2C(F)(F)F)CC1` [Example 132, 5-[3-(methyl{[(1r,4r)-4-(methylamino)cyclohexyl]methyl}amino)-4-(trifluoromethyl)phenyl]-1,3,4-oxadiazol-2(3H)-one hydrochloride], the GI50 in assay [1] came out at 440 nM. The compound also gave a half-maximal inhibitory concentration (IC50) in assay [2] of 17 nM.

Turning to `CN[C@H]1CC[C@H](CNc2cc(-c3n[nH]c(=O)o3)ccc2C(F)(F)F)CC1` [Example 131, 5-[3-({[(1r,4r)-4-(methylamino)cyclohexyl]methyl}amino)-4-(trifluoromethyl)phenyl]-1,3,4-oxadiazol-2(3H)-one hydrochloride], the GI50 in assay [1] came to 71 nM. Further, 3 nM corresponded to half-maximal inhibition in assay [2] (IC50).

As to `C[C@@H]1CN([C@@H](C)C2CCNCC2)c2cc(-c3n[nH]c(=O)o3)cc(F)c2O1` [Example 250, 5-{(2R)-8-fluoro-2-methyl-4-[(1S)-1-(piperidin-4-yl)ethyl]-3,4-dihydro-2H-1,4-benzoxazin-6-yl}-1,3,4-oxadiazol-2(3H)-one], in assay [1], the GI50 worked out at 190 nM. In assay [2], this compound had an IC50 of 5.7 nM.

In the case of `CC1(CCNc2cc(-c3n[nH]c(=O)o3)ccc2C(F)(F)F)CCNCC1` [Example 70, 5-[3-{[2-(4-methylpiperidin-4-yl)ethyl]amino}-4-(trifluoromethyl)phenyl]-1,3,4-oxadiazol-2(3H)-one hydrochloride], the GI50 in assay [1] was 1700 nM. This compound gave an IC50 in assay [2] of 4.2 nM.

For `C[C@H](Nc1cc(-c2n[nH]c(=O)o2)ccc1C(F)(F)F)[C@H]1CC[C@H](NCCO)CC1` [Example 201, 5-[3-{[(1S)-1-{(1r,4S)-4-[(2-hydroxyethyl)amino]cyclohexyl}ethyl]amino}-4-(trifluoromethyl)phenyl]-1,3,4-oxadiazol-2(3H)-one hydrochloride], the GI50 in assay [1] is 560 nM. The midpoint of inhibition in assay [2], the IC50, lay at 8.7 nM.

On to `CC1CC(CNc2cc(-c3n[nH]c(=O)o3)ccc2C(F)(F)F)CCN1` (stereo not drawn) [Example 143, 5-[3-{[(2-methylpiperidin-4-yl)methyl]amino}-4-(trifluoromethyl)phenyl]-1,3,4-oxadiazol-2(3H)-one hydrochloride], for which, in assay [1], the GI50 stood at 610 nM. Moreover, the midpoint of inhibition in assay [2], the IC50, lay at 14 nM.

`C[C@H](Nc1nc(-c2n[nH]c(=O)o2)ccc1C(F)(F)F)C1CCNCC1` [Example 114, 5-[6-{[(1S)-1-(piperidin-4-yl)ethyl]amino}-5-(trifluoromethyl)pyridin-2-yl]-1,3,4-oxadiazol-2(3H)-one hydrochloride hydrochloride]: the GI50 in assay [1] stood at 300 nM. Moreover, the IC50 in assay [2] came to 8.4 nM.

In the case of `C[C@@H](Nc1cc(-c2n[nH]c(=O)o2)ccc1C(F)(F)F)[C@H]1CC[C@H](N)CC1` [Example 111, 5-[3-({(1R)-1-[(1r,4R)-4-aminocyclohexyl]ethyl}amino)-4-(trifluoromethyl)phenyl]-1,3,4-oxadiazol-2(3H)-one hydrochloride], the GI50 in assay [1] was 140 nM. Besides, the half-inhibitory concentration (IC50) in assay [2] came out at 6.4 nM.

With `C[C@H](Nc1cc(-c2n[nH]c(=O)o2)ccc1C(F)(F)F)[C@@H]1[C@@H]2CC[C@H]1CNC2` [Example 155, 5-[3-({(1S)-1-[(1R,5S,8r)-3-azabicyclo[3.2.1]octan-8-yl]ethyl}amino)-4-(trifluoromethyl)phenyl]-1,3,4-oxadiazol-2(3H)-one hydrochloride], in assay [1], the GI50 worked out at 92 nM. Moreover, in assay [2], half-maximal inhibition (IC50) required 5.8 nM.

Consider `O=c1[nH]nc(-c2cc(F)c(Cl)c(NCC3(F)CCNCC3)c2)o1` [Example 123, 5-(4-chloro-3-fluoro-5-{[(4-fluoropiperidin-4-yl)methyl]amino}phenyl)-1,3,4-oxadiazol-2(3H)-one hydrochloride], for which the GI50 in assay [1] worked out at 340 nM. In assay [2], this compound returned an IC50 of 8.2 nM.

For `CC[C@H]1CNCC[C@H]1[C@H](C)Nc1cc(-c2n[nH]c(=O)o2)cc(F)c1C(F)(F)F` [Example 226, 5-[3-({(1S)-1-[(3R,4R)-3-ethylpiperidin-4-yl]ethyl}amino)-5-fluoro-4-(trifluoromethyl)phenyl]-1,3,4-oxadiazol-2(3H)-one], the GI50 in assay [1] was 83 nM. The same compound yielded an IC50 in assay [2] of 5.4 nM.

Regarding `N[C@H]1CC[C@H](CNc2cc(-c3n[nH]c(=O)o3)ccc2-c2ccccc2)CC1` [Example 71, 5-[2-({[(1r,4r)-4-aminocyclohexyl]methyl}amino)[1,1′-biphenyl]-4-yl]-1,3,4-oxadiazol-2(3H)-one hydrochloride], the GI50 in assay [1] is 4200 nM. Also, it took 140 nM to reach half-maximal inhibition in assay [2] (IC50).

Regarding `CC[C@H](Nc1cc(-c2n[nH]c(=O)o2)ccc1C(F)(F)F)[C@H]1CC[C@H](N)CC1` [Example 181, 5-[3-({(1S)-1-[(1r,4S)-4-aminocyclohexyl]propyl}amino)-4-(trifluoromethyl)phenyl]-1,3,4-oxadiazol-2(3H)-one hydrochloride], the GI50 in assay [1] amounted to 68 nM. For the same compound, inhibition in assay [2] was half-maximal at 3.5 nM (IC50).

As for `O=c1[nH]nc(-c2ccc(C(F)(F)F)c(NCC3(F)CCNCC3)c2)o1` [Example 108, 5-[3-{[(4-fluoropiperidin-4-yl)methyl]amino}-4-(trifluoromethyl)phenyl]-1,3,4-oxadiazol-2(3H)-one hydrochloride], the GI50 in assay [1] was 270 nM. This compound came in with an IC50 in assay [2] of 19 nM.

`C[C@H](Nc1cc(-c2n[nH]c(=O)o2)cc(F)c1C(F)(F)F)[C@@H]1CCNC[C@@H]1C` [Example 211, 5-[3-fluoro-5-({(1S)-1-[(3R,4R)-3-methylpiperidin-4-yl]ethyl}amino)-4-(trifluoromethyl)phenyl]-1,3,4-oxadiazol-2(3H)-one]: the GI50 in assay [1] amounted to 110 nM. The same compound displayed an IC50 in assay [2] of 4.9 nM.

Regarding `O=c1[nH]nc(-c2ccc(C(F)(F)F)c(N[C@@H](C(F)F)C3(F)CCNCC3)c2)o1` [Example 140, 5-[3-{[(1R)-2,2-difluoro-1-(4-fluoropiperidin-4-yl)ethyl]amino}-4-(trifluoromethyl)phenyl]-1,3,4-oxadiazol-2(3H)-one hydrochloride], the GI50 in assay [1] was 57 nM. In assay [2], this compound gave a half-maximal inhibitory concentration (IC50) of 4.1 nM.

With `O=c1[nH]nc(-c2ccc(Cl)c(OC[C@H]3C[C@@H](N4CCNCC4)C3)c2)o1` [Example 242, 5-(4-chloro-3-{[(1s,3s)-3-(piperazin-1-yl)cyclobutyl]methoxy}phenyl)-1,3,4-oxadiazol-2(3H)-one], in assay [1], the GI50 was found to be 2600 nM. For the same compound, the concentration for half-maximal inhibition (IC50) in assay [2] is 10 nM.

Consider `C[C@H](Nc1cc(-c2n[nH]c(=O)o2)cc(F)c1C(F)(F)F)[C@H]1C[C@@H](N)C1` [Example 165, 5-[3-({(1S)-1-[(1s,3R)-3-aminocyclobutyl]ethyl}amino)-5-fluoro-4-(trifluoromethyl)phenyl]-1,3,4-oxadiazol-2(3H)-one], for which the GI50 in assay [1] was found to be 25 nM. This compound had a half-maximal inhibitory concentration (IC50) in assay [2] of 2.2 nM.

Regarding `NCCc1ccc(-c2cc(-c3n[nH]c(=O)o3)ccc2C(F)(F)F)cc1` [Example 22, 5-[4′-(2-aminoethyl)-6-(trifluoromethyl)[1,1′-biphenyl]-3-yl]-1,3,4-oxadiazol-2(3H)-one hydrochloride], in assay [1], the GI50 stood at 2200 nM. This compound also displayed a concentration for half-maximal inhibition (IC50) in assay [2] of 27 nM.

For the compound `O=c1[nH]nc(-c2ccc(C(F)(F)F)c(N3CCC4(CCNCC4)CC3)c2)o1` [Example 15, 5-[3-(3,9-diazaspiro[5.5]undecan-3-yl)-4-(trifluoromethyl)phenyl]-1,3,4-oxadiazol-2(3H)-one hydrochloride], the GI50 in assay [1] was determined as 600 nM. In assay [2], this compound registered an IC50 of 15 nM.

Take `O=c1[nH]nc(-c2ccc(C(F)(F)F)c(NCC3(F)CCCNC3)c2)o1` (stereo not drawn) [Example 109, 5-[3-{[(3-fluoropiperidin-3-yl)methyl]amino}-4-(trifluoromethyl)phenyl]-1,3,4-oxadiazol-2(3H)-one hydrochloride]: the GI50 in assay [1] came out at 480 nM. In addition, 28 nM corresponded to half-maximal inhibition in assay [2] (IC50).

One may read the IC50 as the concentration that inhibits the measured activity by half. The low end stands for inhibition by little substance, the high end for a need for much substance.
